Assay results published in patent publication US20170189504A1, “NOVEL PEPTIDES AND COMBINATION OF PEPTIDES FOR USE IN IMMUNOTHERAPY AGAINST VARIOUS CANCERS” (immatics biotechnologies GmbH, priority 2015, published 2017).

Test system: HLA-A*24
Test: MHC binding assay, UV-ligand exchange with β2m ELISA, HLA-A*24 (Table 21)
Parameters: species or system human
Conditions: binding to HLA-A*24 ranged by peptide exchange yield (UV-ligand exchange, β2m ELISA)
Text: (§1) Candidate peptides for T cell based therapies according to the present invention were further tested for their MHC binding capacity (affinity). The individual peptide-MHC complexes were produced by UV-ligand exchange, where a UV-sensitive peptide is cleaved upon UV-irradiation, and exchanged with the peptide of interest as analyzed. Only peptide candidates that can effectively bind and stabilize the peptide-receptive MHC molecules prevent dissociation of the MHC complexes. To determine the yield of the exchange reaction, an ELISA was performed based on the detection of the light chain ((β2m) of stabilized MHC complexes. The assay was performed as generally described in Rodenko et al. (Rodenko et al., 2006).
(§2) 96 well MAXISorp plates (NUNC) were coated over night with 2 ug/ml streptavidin in PBS at room temperature, washed 4× and blocked for 1 h at 37° C. in 2% BSA containing blocking buffer. Refolded HLA-A*02:01/MLA-001 monomers served as standards, covering the range of 15-500 ng/ml. Peptide-MHC monomers of the UV-exchange reaction were diluted 100 fold in blocking buffer. Samples were incubated for 1 h at 37° C., washed four times, incubated with 2 ug/ml HRP conjugated anti-β2m for 1 h at 37° C., washed again and detected with TMB solution that is stopped with […]. Absorption was measured at 450 nm. Candidate peptides that show a high exchange yield (preferably higher than 50%, most preferred higher than 75%) are generally preferred for a generation and production of antibodies or fragments thereof, and/or T cell receptors or fragments thereof, as they show sufficient avidity to the MHC molecules and prevent dissociation of the MHC complexes.

| Substance | Peptide exchange |
| --- | --- |
| 186 (IFPQFLYQF; listed as Homo sapiens) [compound 186] | ++++ (≧75% = ++++) |
| 170 (VYEDQVGKF; listed as Homo sapiens) [compound 170] | ++ (20%-49% = ++) |
| 273 (TYIKPISKL; listed as Homo sapiens) [compound 273] | +++ (50%-75% = +++) |
| 288 (VYVSDIQEL; listed as Homo sapiens) [compound 288] | +++ (50%-75% = +++) |
| 267 (KYMVYPQTF; listed as Homo sapiens) [compound 267] | ++++ (≧75% = ++++) |
| 284 (RYLNKAFHI; listed as Homo sapiens) [compound 284] | +++ (50%-75% = +++) |
| 179 (MYDSYWRQF; listed as Homo sapiens) [compound 179] | ++++ (≧75% = ++++) |
| 289 (KYPVEWAKF; listed as Homo sapiens) [compound 289] | ++++ (≧75% = ++++) |
| 277 (VYQGHTALL; listed as Homo sapiens) [compound 277] | ++++ (≧75% = ++++) |
| 209 (TYKDEGNDYF; listed as Homo sapiens) [compound 209] | +++ (50%-75% = +++) |
| 188 (RYFKGLVF; listed as Homo sapiens) [compound 188] | +++ (50%-75% = +++) |
| 185 (IYKVGAPTI; listed as Homo sapiens) [compound 185] | +++ (50%-75% = +++) |
| 191 (VFKASKITF; listed as Homo sapiens) [compound 191] | +++ (50%-75% = +++) |
| 275 (EYINQGDLHEF; listed as Homo sapiens) [compound 275] | +++ (50%-75% = +++) |
| 217 (FFPPTRQMGLLF; listed as Homo sapiens) [compound 217] | ++++ (≧75% = ++++) |
| 208 (TYTQDFNKF; listed as Homo sapiens) [compound 208] | +++ (50%-75% = +++) |
| 198 (LYLDKATLI; listed as Homo sapiens) [compound 198] | +++ (50%-75% = +++) |
| 287 (LYITEPKTI; listed as Homo sapiens) [compound 287] | +++ (50%-75% = +++) |
| 193 (RFHPTPLLL; listed as Homo sapiens) [compound 193] | ++++ (≧75% = ++++) |
| 280 (RYPDNLKHLYL; listed as Homo sapiens) [compound 280] | ++++ (≧75% = ++++) |
| 205 (VHIPEVYLI; listed as Homo sapiens) [compound 205] | +++ (50%-75% = +++) |

| Substance | Peptide exchange |
| --- | --- |
| 164 (KFSSFSLFF; listed as Homo sapiens) [compound 164] | +++ (50%-75% = +++) |
| 227 (IFLDYEAGTLSF; listed as Homo sapiens) [compound 227] | ++++ (≧75% = ++++) |
| 201 (IYATEAHVF; listed as Homo sapiens) [compound 201] | +++ (50%-75% = +++) |
| 184 (VFQNFPLLF; listed as Homo sapiens) [compound 184] | ++++ (≧75% = ++++) |
| 187 (TYLRDQHFL; listed as Homo sapiens) [compound 187] | ++++ (≧75% = ++++) |
| 172 (TYTTVPRVAF; listed as Homo sapiens) [compound 172] | ++++ (≧75% = ++++) |
| 223 (KYIPYKYVI; listed as Homo sapiens) [compound 223] | +++ (50%-75% = +++) |
| 190 (GFFIFNERF; listed as Homo sapiens) [compound 190] | +++ (50%-75% = +++) |
| 279 (TYIESASEL; listed as Homo sapiens) [compound 279] | +++ (50%-75% = +++) |
| 224 (QYLENLEKL; listed as Homo sapiens) [compound 224] | +++ (50%-75% = +++) |
| 194 (EFGSLHLEFL; listed as Homo sapiens) [compound 194] | + (<20% = +) |
| 180 (IYDDSFIRPVTF; listed as Homo sapiens) [compound 180] | +++ (50%-75% = +++) |
| 182 (IYQLDTASI; listed as Homo sapiens) [compound 182] | +++ (50%-75% = +++) |
| 177 (VYPWLGALL; listed as Homo sapiens) [compound 177] | ++++ (≧75% = ++++) |
| 286 (RYPDNLKHL; listed as Homo sapiens) [compound 286] | ++ (20%-49% = ++) |
| 171 (LFIPSSKLLFL; listed as Homo sapiens) [compound 171] | +++ (50%-75% = +++) |
| 210 (IYTMIYRNL; listed as Homo sapiens) [compound 210] | ++++ (≧75% = ++++) |
| 283 (TYGDAGLTYTF; listed as Homo sapiens) [compound 283] | +++ (50%-75% = +++) |
| 211 (YYLEVGKTLI; listed as Homo sapiens) [compound 211] | ++++ (≧75% = ++++) |
| 225 (YYVYIMNHL; listed as Homo sapiens) [compound 225] | +++ (50%-75% = +++) |

Test system: HLA-A*02
Test: MHC binding assay, UV-ligand exchange with β2m ELISA, HLA-A*02 (Table 20)
Parameters: species or system human
Conditions: binding to HLA-A*02 ranged by peptide exchange yield (UV-ligand exchange, β2m ELISA)
Text: as §1, §2

| Substance | Peptide exchange |
| --- | --- |
| 148 (MLAGIAITV; listed as Homo sapiens) [compound 148] | +++ (50%-75% = +++) |
| 21 (AIQDEIRSV; listed as Homo sapiens) [compound 21] | +++ (50%-75% = +++) |
| 53 (KMVGLVVAI; listed as Homo sapiens) [compound 53] | +++ (50%-75% = +++) |
| 110 (FLLGVSKEV; listed as Homo sapiens) [compound 110] | +++ (50%-75% = +++) |
| 95 (GLLGSLFFL; listed as Homo sapiens) [compound 95] | ++++ (≧75% = ++++) |
| 118 (QLWQFLVTL; listed as Homo sapiens) [compound 118] | +++ (50%-75% = +++) |
| 258 (LLSERFINV; listed as Homo sapiens) [compound 258] | ++++ (≧75% = ++++) |
| 261 (QLQDRVYAL; listed as Homo sapiens) [compound 261] | +++ (50%-75% = +++) |
| 84 (ALCPRIHEV; listed as Homo sapiens) [compound 84] | ++++ (≧75% = ++++) |
| 44 (SLFETAWEA; listed as Homo sapiens) [compound 44] | +++ (50%-75% = +++) |
| 71 (VLHSKFWVV; listed as Homo sapiens) [compound 71] | +++ (50%-75% = +++) |
| 103 (YLVSEIFKA; listed as Homo sapiens) [compound 103] | +++ (50%-75% = +++) |
| 125 (SLADYEHFV; listed as Homo sapiens) [compound 125] | ++++ (≧75% = ++++) |
| 81 (NALDKVLSV; listed as Homo sapiens) [compound 81] | +++ (50%-75% = +++) |
| 72 (FLTAINYLL; listed as Homo sapiens) [compound 72] | +++ (50%-75% = +++) |
| 133 (ALLPRLHQL; listed as Homo sapiens) [compound 133] | ++++ (≧75% = ++++) |
| 64 (SLFPDSLIV; listed as Homo sapiens) [compound 64] | ++ (20%-49% = ++) |
| 78 (TVVTRLDEI; listed as Homo sapiens) [compound 78] | ++ (20%-49% = ++) |
| 143 (ALLPELREV; listed as Homo sapiens) [compound 143] | +++ (50%-75% = +++) |
| 106 (FINDSIVYL; listed as Homo sapiens) [compound 106] | +++ (50%-75% = +++) |
| 40 (VLIDPQWVLTA; listed as Homo sapiens) [compound 40] | +++ (50%-75% = +++) |
| 94 (LLLPAVPVGA; listed as Homo sapiens) [compound 94] | +++ (50%-75% = +++) |
| 101 (ALADFMLSL; listed as Homo sapiens) [compound 101] | +++ (50%-75% = +++) |
| 38 (FLGPRIIGL; listed as Homo sapiens) [compound 38] | +++ (50%-75% = +++) |
| 253 (ALAELIDNSL; listed as Homo sapiens) [compound 253] | +++ (50%-75% = +++) |
| 105 (ALLGTKILL; listed as Homo sapiens) [compound 105] | +++ (50%-75% = +++) |
| 146 (ALHFSEDEI; listed as Homo sapiens) [compound 146] | ++ (20%-49% = ++) |
| 142 (ILVEGISTV; listed as Homo sapiens) [compound 142] | +++ (50%-75% = +++) |
| 246 (TVSDVLNSV; listed as Homo sapiens) [compound 246] | +++ (50%-75% = +++) |
| 123 (VLDPALPALV; listed as Homo sapiens) [compound 123] | ++ (20%-49% = ++) |
